According to patent US20060159617A1, “Small technetium-99m and rhenium labeled agents and methods for imaging tissues, organs and tumors” (priority 2002, published 2006):

Legend:
σ1 receptor = biological target: T1, σ1 receptor (Cavia porcellus, UniProt Q60492); assay: Sigma-1 receptor competition binding assay with [3H]-(+)-pentazocine; design: species or system guinea pig; details: apparent Ki (Cheng-Prusoff), brain membranes
T1 construct: The membranes were prepared from guinea pig brain (minus cerebellum) as described above; from tissue; host or cells: guinea pig brain (minus cerebellum) membranes
T1 sequence (Q60492 whole entry): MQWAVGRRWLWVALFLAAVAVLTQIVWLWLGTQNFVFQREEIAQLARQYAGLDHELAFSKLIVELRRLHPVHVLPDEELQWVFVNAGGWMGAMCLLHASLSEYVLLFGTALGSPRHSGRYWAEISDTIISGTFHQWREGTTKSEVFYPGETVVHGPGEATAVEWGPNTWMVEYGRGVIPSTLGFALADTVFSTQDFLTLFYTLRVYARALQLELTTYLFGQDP
Description: The in vitro σ1 receptor binding affinities of rhenium coordinated complexes were determined in a competition assay using […] and high-affinity σ1 ligand [3H]-(+)-pentazocine (28 Ci/mmol, NEN Life Science Inc., Cambridge, Mass.). See, Mol. Neuropharmacol. 1993, 3, 117-126.
The membranes were prepared from guinea pig brain (minus cerebellum) as described above and stored at −70 ° C. Twelve concentrations of the nonradioactive rhenium complexes ranging from 1×10^−11 to 1×10^−3 and protein samples (0.15 mg of membrane protein) were incubated with […] [3H]-(+)-pentazocine in a total volume of 0.25 mL of Tris-HCl (50 mM, pH 8.0). Incubations were carried out for 120 min at 25° C. All assays were terminated by dilution with 5 mL of ice-cold Tris-HCl (10 mM), pH 8.0, and solution were filtered through glass-fiber filters (Whatman GF/F; presoaked in 0.5% polyethyleneimine for 30 min at 25° C.). Filters were then washed three times with 5 mL of ice-cold Tris-HCl (50 mM, pH 8.0), and counted in Hionic-Fluor cocktail (Packard, Groningen, the Netherlands). The corresponding IC50 values were determined with Origin 6.0 software (OriginLab, Northampton, Mass.) and were used for the calculation of the apparent Ki values with the Cheng-Prusoff equation. See, Biochem. Pharmacol. 1973, 22, 3099-3108.

σ2 receptor = biological target: T2, σ2 receptor (Rattus norvegicus, UniProt Q5U3Y7); assay: σ2 receptor competition binding assay with [3H]-DTG, σ1 masked; details: apparent Ki, rat liver membranes
T2 construct: Rat liver membranes were prepared from male Sprague-Dawley rat livers as previously described; from tissue; host or cells: male Sprague-Dawley rat liver membranes
T2 sequence (Q5U3Y7 1-176): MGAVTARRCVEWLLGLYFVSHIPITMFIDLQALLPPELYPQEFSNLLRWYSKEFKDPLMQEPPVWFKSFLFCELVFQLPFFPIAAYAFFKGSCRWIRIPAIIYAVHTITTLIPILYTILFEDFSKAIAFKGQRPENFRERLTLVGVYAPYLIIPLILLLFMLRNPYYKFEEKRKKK
Description: Rat liver membranes were prepared from male Sprague-Dawley rat livers as previously described (Eur. J. Pharmacol.—Mol. Pharmacol. Sect. 1994, 268, 9-18). The in vitro σ2 receptor binding affinities of rhenium coordinated complexes were determined in a competition assay using rat livers and [^3H]-DTG (31 Ci/mmol, NEN Life Science Inc., Cambridge, Mass.) as radioligand in the presence of 10 μM 1-pyrrolidinylethyl 3,4-dichlorophenylacetate oxalate (ACT915 oxalate) to mask σ1 receptors (Bioorg. & Med. Chem. Lett. 2000, 10, 17-18). Competition assays were performed with twelve concentrations of the nonradioactive rhenium complexes ranging from 1×10^−10 to 1×10^−3 and protein samples (0.15 mg of membrane protein) in a total volume of 0.25 mL of Tris-HCl (50 mM, pH 8.0) for 120 min at 25° C. All other manipulations and data analysis were performed as described vide supra for the σ1-receptor assays.

B16 melanoma = assay: In-vivo tumor uptake / biodistribution, B16 melanoma-bearing mice; details: 1 h, B16/F0 melanoma mice
Description: (§1) To study the tumor uptake of radiolabeled metal complexes, in vivo, biodistribution experiments at 1 h after their administration were carried out in C57B16 male mice with palpable B16 melanoma nodules and male nude mice bearing DU145 human prostate carcinoma in the hind limb.
(§2) The biodistribution data including tumor/nontumor (T/NT) ratios for selected organs are summarized in Table 1 and 2 as percentage injected dose per gram (% ID/g).

[1] = test system: DU145 human prostate carcinoma; assay: In-vivo tumor uptake / biodistribution, DU145 tumor-bearing nude mice; details: 1 h
Description: as §1, §2

5HT1A receptor = biological target: T3, 5HT1A receptor (Rattus norvegicus, UniProt P19327); assay: 5HT1A receptor competition binding assay with [3H]-8-OH-DPAT; details: apparent Ki, rat hippocampus
T3 construct: The brains were rapidly removed, and hippocampus, frontal cortex, hypothalamus, and striatum were hand-dissected on ice; from tissue; host or cells: male Sprague-Dawley rat hippocampus membranes
T3 sequence (P19327 1-422): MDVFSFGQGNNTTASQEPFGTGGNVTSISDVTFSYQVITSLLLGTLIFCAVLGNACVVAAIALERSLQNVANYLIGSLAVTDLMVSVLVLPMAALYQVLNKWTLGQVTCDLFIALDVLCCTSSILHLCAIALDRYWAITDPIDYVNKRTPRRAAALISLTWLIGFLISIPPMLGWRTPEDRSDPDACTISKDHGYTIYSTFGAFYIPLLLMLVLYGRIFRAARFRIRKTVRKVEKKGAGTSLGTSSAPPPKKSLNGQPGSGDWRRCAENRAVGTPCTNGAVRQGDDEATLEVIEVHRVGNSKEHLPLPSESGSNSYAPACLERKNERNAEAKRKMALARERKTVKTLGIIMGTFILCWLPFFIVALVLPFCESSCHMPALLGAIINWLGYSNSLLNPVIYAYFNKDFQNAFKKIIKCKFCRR
Description: The in vitro 5HT1A binding affinities of rhenium coordinated complexes were determined in a competition assay using rat hippocampus and high-affinity 5HT1A-ligand [^3H]-8-OH-DPAT (135 Ci/mmol, NEN Life Science Inc., Cambridge, Mass.). See, Brain Res. 1995, 673, 217-225.
Male Sprague-Dawley rats (weighing 150-170 g) were sacrificed using anesthesia agent isoflurane. The brains were rapidly removed, and hippocampus, frontal cortex, hypothalamus, and striatum were hand-dissected on ice and stored at −70° C. Tissue was thawed at room temperature and homogenized using a Brinkmann Polytron tissue disrupter in 50 volumes (wt/vol) of ice-cold 50 mM Tris-HCl buffer (pH 7.4). The suspension was centrifuged twice at 27,000 g for 20 min at 4° C. The membrane pellets were resuspended in 50 volumes of (wt/vol) Tris-HCl buffer and incubated at 37° C. for 20 min in a water bath, before a final centrifugation step (27,000 g; 20 min; 4° C.). The final tissue pellets were stored at −70° C. until assayed.
(§3) Twelve concentrations of the nonradioactive rhenium complexes ranging from 1×10^−11 to 1×10^−4 and protein samples (0.15 mg of membrane protein) were incubated with 1.5 nM [^3H]-8-OH-DPAT in a total volume of 0.25 mL of Tris-HCl (50 mM, pH 7.4, 10 mM MgSO4). Incubations were carried out for 60 min at 25° C. All assays were terminated by dilution with 5 mL of ice-cold Tris-HCl (10 mM), pH 7.4, and solution were filtered through glass-fiber filters (Whatman GF/F; presoaked in 0.5% polyethyleneimine for 30 min at 25° C.). Filters were then washed three times with 5 mL of ice-cold Tris-HCl (50 mM, pH 7.4), and counted in Hionic-Fluor cocktail (Packard, Groningen, the Netherlands). The corresponding IC50 values were determined with Origin 6.0 software (OriginLab, Northampton, Mass.) and were used for the calculation of the apparent Ki values with the Cheng-Prusoff equation. See, Biochem. Pharmacol. 1973, 22, 3099-3108.

α1 receptor = assay: Alpha-1 receptor competition binding assay with [3H]-Prazosin; details: apparent Ki, rat frontal cortex
Description: The in vitro α1 receptor binding affinities of rhenium coordinated complexes were determined in a competition assay using rat frontal cortex and high-affinity α1 ligand [^3H]-Prazosin (80 Ci/mmol, NEN Life Science Inc., Cambridge, Mass.). See, Eur. J. Nucl. Med. 2002, 29, 82-87.
as §3, with “The frontal cortex of rat brain was prepared as described above and store at −70° C. until used in the binding assays. Ten” for “Twelve”, “1×10^−10” for “1×10^−11”, “1×10^−3” for “1×10^−4”, “[^3H]-Prazosin” for “[^3H]-8-OH-DPAT”, “Biocheni.” for “Biochem.”

[2] = Determination of lipophilicity and pKa values by HPLC; assay type: physicochemical
Description: The lipophilicity and pKa values of all complexes were determined using HPLC methods described previously (Stylli, C.; Theobald, A. E. Determination of Ionization Constants of Radiopharmaceuticals in Mixed Solvents by HPLC. Appl. Radiat. Isot., 1987, 38, 701-708; Johannsen, B.; Scheunemann, M.; Spies, H.; Brust, P.; Wober, J.; Syhre, R.; Pietzsch, H.-J. Technetium(V) and Rhenium(V) Complexes for 5-HT2A Serotonin Receptor Binding: Structure-Affinity Considerations. Nucl. Med. Biol., 1996, 23, 429-438; and Johannsen, B.; Berger, R.; Brust, P.; Pietzsch, H.-J.; Scheunemann, M.; Seifert, S.; Spies, H.; Syhre, R. Structural Modification of Receptor-Binding Technetium-99m Complexes in Order to Improve Brain Uptake. Eur. J. Nucl. Med. 1997, 24, 316-319). […] The mobile phase was acetonitrile:phosphate buffer (0.01 M), 3:1, v/v, with the aqueous buffer adjusted to the desired pH between 3 and 11. The capacity factor (k′) was calculated for each determination (Braumann, T.; Grimme, L. H. Determination of Hydrophobic Parameters for Pyridazinone Herbicides by Liquid-Liquid Partition and Reversed-Phase High-Performance Liquid Chromatography. J. Chromatogr. 1981, 206, 7-15; El Tayer, N.; van der Waterbeemd, H.; Testa, B. Lipophilicity Measurements of Protonated Basic Compounds by Reversed-Phase High-Performance Liquid Chromatography. II. Procedure for the Determination of a Lipophilic Index Measured by Reversed-Phase High Performance Liquid Chromatography. J. Chromatogr. 1985, 320, 305-312; and Minick, D. J.; Frenz, J. H.; Patrick, M. A.; Brent, D. A. A Comprehensive Method for Determining Hydrophobicity Constants by Reversed-Phase High-Performance Liquid Chromatography. J. Med. Chem., 1988, 31, 1923-1933) and the partition coefficient at a given pH (D or logD) were calculated from the equation: log D=a log k′+b where the parameters a and b are predetermined using standard amines. The fitted points of inflection from the sigmoidal DHPLC/pH profiles permit calculation of the pKHPLC(Stylli, C.; Theobald, A. E. Determination of Ionization Constants of Radiopharmaceuticals in Mixed Solvents by HPLC. Appl. Radiat. Isot., 1987, 38, 701-708). The aqueous ionization constants pKa were calculated from the pKHPLC values after correction with a predetermined correction factor obtained using standard amine compounds. Log P values of the neutral complexes were estimated from the respective upper plateau of the sigmoidal log D/pH curve in the alkaline range.

O=C(CN1CC[S][Re]2(=[O])[S]CC[N]2C(=O)C1)NC1CCN(Cc2ccccc2)CC1 (centres unmarked) [Re-22]
Ki (σ1 receptor): 5.51 µM
Ki (σ2 receptor): 4.71 ± 0.986 µM

O=C1CN(CCCN2CCC(Cc3ccccc3)CC2)CC[S][99Tc]2(=[O])[S]CC[N]12 (centres unmarked) [Re 99mTc-15]
Tumor/Blood ratio (B16 melanoma): 7.47
Tumor/Liver ratio (B16 melanoma): 0.21
Tumor/Lung ratio (B16 melanoma): 0.31
Tumor/Muscle ratio (B16 melanoma): 3.57
Blood %ID/g (B16 melanoma; blood): 0.44 %ID/g
Brain %ID/g (B16 melanoma; brain): 0.48 %ID/g
Heart %ID/g (B16 melanoma; heart): 1.87 %ID/g
Intestine %ID/g (B16 melanoma; intestine): 14.38 %ID/g
Kidney %ID/g (B16 melanoma; kidney): 7.66 %ID/g
Liver %ID/g (B16 melanoma; liver): 10.23 %ID/g
Lung %ID/g (B16 melanoma; lung): 15.60 %ID/g
Muscle %ID/g (B16 melanoma; muscle): 0.90 %ID/g
Skin %ID/g (B16 melanoma; skin): 1.21 %ID/g
Spleen %ID/g (B16 melanoma; spleen): 5.95 %ID/g
Stomach %ID/g (B16 melanoma; stomach): 6.81 %ID/g
Tumor %ID/g (B16 melanoma; tumor): 3.18 %ID/g
Tumor/Blood ratio [1]: 7.93
Tumor/Liver ratio [1]: 0.21
Tumor/Lung ratio [1]: 0.25
Tumor/Muscle ratio [1]: 2.33
Blood %ID/g ([1]; blood): 0.31 %ID/g
Brain %ID/g ([1]; brain): 0.51 %ID/g
Heart %ID/g ([1]; heart): 1.82 %ID/g
Intestine %ID/g ([1]; intestine): 20.94 %ID/g
Kidney %ID/g ([1]; kidney): 7.92 %ID/g
Liver %ID/g ([1]; liver): 12.06 %ID/g
Lung %ID/g ([1]; lung): 9.96 %ID/g
Muscle %ID/g ([1]; muscle): 1.06 %ID/g
Skin %ID/g ([1]; skin): 1.76 %ID/g
Spleen %ID/g ([1]; spleen): 7.56 %ID/g
Stomach %ID/g ([1]; stomach): 5.26 %ID/g
Tumor %ID/g ([1]; tumor): 2.46 %ID/g

O=C1CN(CCCN2CCC(c3ccccc3)CC2)CC[S][Re]2(=[O])[S]CC[N]12 (centres unmarked) [Re-21]
Ki (5HT1A receptor): 0.0557 ± 0.0083 µM
Ki (σ1 receptor): 0.553 µM
Ki (σ2 receptor): 0.0846 ± 0.0079 µM
Ki (α1 receptor): 0.039 ± 0.004 µM

O=C1CN(CCCN2CCC(O)(c3ccc(Cl)cc3)CC2)CC[S][Re]2(=[O])[S]CC[N]12 (centres unmarked) [Re-18]
k' (pH = 7.4) ([2]; HPLC capacity factor at pH 7.4): 29.7
k' (Max) ([2]; HPLC capacity factor, maximum): 37.5
pKa (Corrected) ([2]; HPLC method, corrected with standard amines): 7.26
Ki (σ1 receptor): 2.96 µM
Ki (σ2 receptor): 0.528 ± 0.111 µM
Ki (α1 receptor): 0.98 ± 0.18 µM
